{
  "source": "patent US10927125B2",
  "about": "“Substituted cinnolines as inhibitors of KRAS G12C” (Araxes Pharma LLC, priority 2013, dated 2021)",
  "data": [
    {"target": "T1, KRAS G12C 1-169, his-tagged protein, GDP-loaded (Homo sapiens, UniProt P01116, G12C)", "T1 construct": "KRAS G12C 1-169, his-tagged protein, GDP-loaded", "T1 sequence (P01116 1-169 isoform P01116-2 G12C)": "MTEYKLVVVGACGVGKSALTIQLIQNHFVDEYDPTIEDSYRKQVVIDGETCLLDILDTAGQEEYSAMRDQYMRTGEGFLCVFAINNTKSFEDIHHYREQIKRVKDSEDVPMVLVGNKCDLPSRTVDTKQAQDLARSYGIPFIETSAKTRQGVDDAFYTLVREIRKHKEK", "assay": "Biochemical assay: covalent binding of compounds to KRAS G12C, analysed by mass spectrometry", "conditions": "binding measured at 30 min (compounds 247-375)", "description": "(§1) Compounds were tested for activity as follows:\n(§2) Compounds were diluted to 50× final test concentration in DMSO in 96-well storage plates. […] Reactions were mixed carefully and thoroughly by pipetting up/down with a 200 μl multi-channel pipettor. The plate was sealed well with aluminum plate seal, and stored in drawer at room temperature for 30 min, 2 hour or 24 hrs. 51 μl of 2% formic acid (Fisher cat # A117) in DI H2O was then added to each well followed by mixing with a pipette. The plate was then resealed with aluminum seal and stored on dry ice until analyzed as described below.\n(§3) The above described assays were analyzed by mass spectrometry according to the following procedure:\n(§4) The MS instrument is set to positive polarity, 2 GHz resolution, and low mass (1700) mode and allowed to equilibrate for 30 minutes. The instrument is then calibrated, switched to acquisition mode and the appropriate method loaded.\n(§5) After another 30 minute equilibration time, a blank batch (i.e., buffer) is run to ensure equipment is operating properly. The samples are thawed at 37° C. for 10 minutes, briefly centrifuged, and transfer to the bench top. Wells A1 and H12 are spiked with 1 uL 500 uM internal standard peptide, and the plates centrifuged at 2000×g for 5 minutes. The method is then run and masses of each individual well recorded.\n(§6) The masses (for which integration data is desired) for each well are pasted into the platemap and exported from the analysis. Masses for the internal standards are exported as well. The data at 50 ppm is extracted for the +19 charge state, and identity of well A1 is assigned using the internal standard spike and integrated. Peak data is exported as a TOF list and the above steps are repeated individually, for the +20, 21, 22, 23, 24, and 25 charge states.", "values": [
      {"compound": "C=CC(=O)N1CCN(c2nc(CN(C)C)nc3c(F)c(-c4c(C)ccc5[nH]ncc45)c(Cl)cc23)CC1", "note": "[Compound 254, 1-(4-(6-chloro-2-((dimethylamino)methyl)-8-fluoro-7-(5-methyl-1H-indazol-4-yl)quinazolin-4-yl)piperazin-1-yl)prop-2-en-1-one]", "Binding %": "+++ (+++ indicates binding activity greater than 50% and up to 75%)"},
      {"compound": "C=CC(=O)N1CCN(c2ncnc3c(F)c(-c4cc(O)cc5ccccc45)c(Cl)cc23)CC1CO", "note": "(centres unmarked) [Compound 256, 1-(4-(6-chloro-8-fluoro-7-(3-hydroxynaphthalen-1-yl)quinazolin-4-yl)-2-(hydroxymethyl)piperazin-1-yl)prop-2-en-1-one]", "Binding %": "+++ (+++ indicates binding activity greater than 50% and up to 75%)"},
      {"compound": "C=CC(=O)N1CCN(c2ncnc3cc(-c4cc(C)cc5[nH]ncc45)c(Cl)cc23)CC1", "note": "[Compound 262, 1-(4-(6-chloro-7-(6-methyl-1H-indazol-4-yl)quinazolin-4-yl)piperazin-1-yl)prop-2-en-1-one]", "Binding %": "+ (+ indicates binding activity from 5% to 25%)"},
      {"compound": "C=CC(=O)N1CCN(c2ncnc3cc(-c4cc(Cl)cc5[nH]ncc45)c(Cl)cc23)CC1", "note": "[Compound 266, 1-(4-(6-chloro-7-(6-chloro-1H-indazol-4-yl)quinazolin-4-yl)piperazin-1-yl)prop-2-en-1-one]", "Binding %": "+++ (+++ indicates binding activity greater than 50% and up to 75%)"},
      {"compound": "C=CC(=O)N1CCN(c2ncnc3c(OC)c(-c4c(C)ccc5[nH]ncc45)c(Cl)cc23)CC1", "note": "[Compound 302, 1-(4-(6-chloro-8-methoxy-7-(5-methyl-1H-indazol-4-yl)quinazolin-4-yl)piperazin-1-yl)prop-2-en-1-one]", "Binding %": "+++ (+++ indicates binding activity greater than 50% and up to 75%)"},
      {"compound": "C=CC(=O)N1CCN(c2cc(=O)[nH]c3cc(-c4c(C)ccc5[nH]ncc45)c(Cl)cc23)CC1", "note": "[Compound 326, 4-(4-acryloylpiperazin-1-yl)-6-chloro-7-(5-methyl-1H-indazol-4-yl)quinolin-2(1H)-one]", "Binding %": "+ (+ indicates binding activity from 5% to 25%)"},
      {"compound": "C/C=C/C(=O)N1CCN(c2ncnc3c(F)c(-c4cc(O)cc5ccccc45)c(Cl)cc23)CC1", "note": "[Compound 328, (E)-1-(4-(6-chloro-8-fluoro-7-(3-hydroxynaphthalen-1-yl)quinazolin-4-yl)piperazin-1-yl)but-2-en-1-one]", "Binding %": "+ (+ indicates binding activity from 5% to 25%)"},
      {"compound": "C=CC(=O)N1CCN(c2ncnc3cc(-c4c(O)cccc4F)c(Cl)c(F)c23)CC1", "note": "[Compound 343, 1-(4-(6-chloro-5-fluoro-7-(2-fluoro-6-hydroxyphenyl)quinazolin-4-yl)piperazin-1-yl)prop-2-en-1-one]", "Binding %": "+++ (+++ indicates binding activity greater than 50% and up to 75%)"},
      {"compound": "C=CC(=O)N1CCN(c2nc(N(C)C)nc3c(F)c(-c4cc(O)cc5ccccc45)c(Cl)cc23)CC1", "note": "[Compound 344, 1-(4-(6-chloro-2-(dimethylamino)-8-fluoro-7-(3-hydroxynaphthalen-1-yl)quinazolin-4-yl)piperazin-1-yl)prop-2-en-1-one]", "Binding %": "+++ (+++ indicates binding activity greater than 50% and up to 75%)"},
      {"compound": "C=CC(=O)N1CCN(c2nc(NC)nc3c(F)c(-c4cc(O)cc5ccccc45)c(Cl)cc23)CC1", "note": "[Compound 345, 1-(4-(6-chloro-8-fluoro-7-(3-hydroxynaphthalen-1-yl)-2-(methylamino)quinazolin-4-yl)piperazin-1-yl)prop-2-en-1-one]", "Binding %": "++++ (++++ indicates binding activity greater than 75%)"},
      {"compound": "C=CC(=O)N1CCN(c2ncnc3c(F)c(-c4cc(O)cc5ccccc45)c(Cl)cc23)CC1CN(C)C", "note": "(centres unmarked) [Compound 346, 1-(4-(6-chloro-8-fluoro-7-(3-hydroxynaphthalen-1-yl)quinazolin-4-yl)-2-((dimethylamino)meth-yl)piperazin-1-yl)prop-2-en-1-one]", "Binding %": "++++ (++++ indicates binding activity greater than 75%)"},
      {"compound": "C=CC(=O)N1CCN(c2nc(NC3CCOC3)nc3c(F)c(-c4c(C)ccc5[nH]ncc45)c(Cl)cc23)CC1", "note": "(centres unmarked) [Compound 347, 1-(4-(6-chloro-8-fluoro-7-(5-methyl-1H-indazol-4-yl)-2-(tetrahydrofuran-3-ylamino)quinazolin-4-yl)piperazin-1-yl)prop-2-en-1-one]", "Binding %": "++++ (++++ indicates binding activity greater than 75%)"},
      {"compound": "C=CC(=O)N1CCN(c2ncnc3c(OC)c(-c4cc(O)cc5ccccc45)c(Cl)cc23)CC1", "note": "[Compound 348, 1-(4-(6-chloro-7-(3-hydroxynaphthalen-1-yl)-8-methoxyquinazolin-4-yl)piperazin-1-yl)prop-2-en-1-one]", "Binding %": "++++ (++++ indicates binding activity greater than 75%)"},
      {"compound": "C=CC(=O)N1CCN(c2nc(NC3CCN(CC(F)(F)F)C3)nc3c(F)c(-c4cc(O)cc5ccccc45)c(Cl)cc23)CC1", "note": "(centres unmarked) [Compound 349, 1-(4-(6-chloro-8-fluoro-7-(3-hydroxynaphthalen-1-yl)-2-(1-(2,2,2-trifluoroethyl)pyrrolidin-3-ylamino)quinazolin-4-yl)piperazin-1-yl)prop-2-en-1-one]", "Binding %": "+++ (+++ indicates binding activity greater than 50% and up to 75%)"}
    ]},
    {"target": "T1, KRAS G12C 1-169, his-tagged protein, GDP-loaded", "assay": "Biochemical assay: covalent binding of compounds to KRAS G12C, analysed by mass spectrometry", "conditions": "binding measured at 2 h (compounds 48-246)", "description": "as §1, §2, §3, §4, §5, §6", "values": [
      {"compound": "C=CC(=O)N1CCN(c2nc(C)nc3cc(Cl)c(-c4ccc(Cl)cc4)cc23)CC1", "note": "[Compound 50, 1-(4-(7-chloro-6-(4-chlorophenyl)-2-methylquinazolin-4-yl)piperazin-1-yl)prop-2-en-1-one]", "Binding %": "+ (+ indicates binding activity from 5% to 25%)"},
      {"compound": "C=CC(=O)N1CCN(c2ncnc3cc(N4CCCCC4)c(Cl)cc23)CC1", "note": "[Compound 80, 1-(4-(6-chloro-7-(piperidin-1-yl)quinazolin-4-yl)piperazin-1-yl)prop-2-en-1-one]", "Binding %": "+ (+ indicates binding activity from 5% to 25%)"},
      {"compound": "C=CC(=O)N1CCN(c2ncnc3cc(-c4ccc(F)cc4C(F)(F)F)c(Cl)cc23)CC1", "note": "[Compound 119, 1-(4-(6-chloro-7-(4-fluoro-2-(trifluoromethyl)phe-nyl)quinazolin-4-yl)piperazin-1-yl)prop-2-en-1-one]", "Binding %": "+++ (+++ indicates binding activity greater than 50% and up to 75%)"},
      {"compound": "C=CC(=O)N1CCN(c2ncnc3cc(-c4c(O)cccc4F)c(Cl)cc23)CC1", "note": "[Compound 138, 1-(4-(6-chloro-7-(2-fluoro-6-hydroxyphenyl)quinazolin-4-yl)piperazin-1-yl)prop-2-en-1-one]", "Binding %": "++++ (++++ indicates binding activity greater than 75%)"},
      {"compound": "C=CC(=O)N1CCC(n2c(=O)cnc3cc(-c4ccc(F)cc4F)c(Cl)cc32)CC1", "note": "[Compound 151, 1-(1-acryloylpiperidin-4-yl)-7-chloro-6-(2,4-difluorophenyl)quinoxalin-2(1H)-one]", "Binding %": "+ (+ indicates binding activity from 5% to 25%)"},
      {"compound": "C=CC(=O)N1CCN(c2cnnc3cc(-c4ccccc4F)c(Cl)cc23)CC1", "note": "[Compound 159, 1-(4-(6-chloro-7-(2-fluorophenyl)cinnolin-4-yl)piperazin-1-yl)prop-2-en-1-one]", "Binding %": "+++ (+++ indicates binding activity greater than 50% and up to 75%)"},
      {"compound": "C=CC(=O)N1CCN(c2c(C(N)=O)cnc3cc(-c4ccccc4F)c(Cl)cc23)CC1", "note": "[Compound 189, 4-(4-acryloylpiperazin-1-yl)-6-chloro-7-(2-fluorophenyl)quinoline-3-carboxamide]", "Binding %": "++ (++ indicates binding activity greater than 25% and up to 50%)"},
      {"compound": "C=CC(=O)N1CCN(c2ncnc3cc(-c4cc(O)c(F)cc4F)c(Cl)cc23)CC1", "note": "[Compound 206, 1-(4-(6-chloro-7-(2,4-difluoro-5-hydroxyphenyl)quinazolin-4-yl)piperazin-1-yl)prop-2-en-1-one]", "Binding %": "+++ (+++ indicates binding activity greater than 50% and up to 75%)"},
      {"compound": "C#Cc1cnc2cc(-c3ccccc3F)c(Cl)cc2c1N1CCN(C(=O)C=C)CC1", "note": "[Compound 215, 1-(4-(6-chloro-3-ethynyl-7-(2-fluorophenyl)quinolin-4-yl)piperazin-1-yl)prop-2-en-1-one]", "Binding %": "++ (++ indicates binding activity greater than 25% and up to 50%)"}
    ]},
    {"target": "T1, KRAS G12C 1-169, his-tagged protein, GDP-loaded", "assay": "Biochemical assay: covalent binding of compounds to KRAS G12C, analysed by mass spectrometry", "conditions": "binding measured at 24 h (compounds 1-47)", "description": "as §1, §2, §3, §4, §5, §6", "values": [
      {"compound": "C=CC(=O)N1CCN(c2nccc3cc(Cl)c(-c4ccc(Cl)cc4O)cc23)CC1", "note": "[Compound 38, 1-(4-(6-chloro-7-(4-chloro-2-hydroxyphenyl)isoquinolin-1-yl)piperazin-1-yl)prop-2-en-1-one]", "Binding %": "++ (++ indicates binding activity greater than 25% and up to 50%)"},
      {"compound": "C=CC(=O)N1CCN(c2nc(N)nc3cc(Cl)c(-c4ccc(Cl)cc4)cc23)CC1", "note": "[Compound 39, 1-(4-(2-amino-7-chloro-6-(4-chlorophenyl)quinazolin-4-yl)piperazin-1-yl)prop-2-en-1-one]", "Binding %": "+ (+ indicates binding activity from 5% to 25%)"},
      {"compound": "C=CC(=O)N1CCN(c2ncnc3cc(Cl)c(-c4ccc(Br)cc4)cc23)CC1", "note": "[Compound 40, 1-(4-(6-(4-bromophenyl)-7-chloroquinazolin-4-yl)piperazin-1-yl)prop-2-en-1-one]", "Binding %": "+++ (+++ indicates binding activity greater than 50% and up to 75%)"}
    ]}
  ]
}
